Assay results as given in patent US9302991B2, “Arylamide derivatives as TTX-S blockers” (RaQualia Pharma Inc., priority 2010, dated 2016).

Biological target: T1, human Nav1.7 channels (Homo sapiens, UniProt Q15858)
T1 construct: expressed in transfected cells; host or cells: CHO
Test: FRET assay, human Nav1.7 (EFS on FDSS)
Assay type: cell-based
Details: CHO cells expressing human Nav1.7, read-out: IC50 against Nav1.7
Protocol: The inhibitory activities of compounds against voltage gated sodium channels are determined by methodology well known in the art.
The ability of the aryl substituted carboxamide derivatives of the formula (I) to inhibit the NaV1.3, Nav1.7 and Nav1.5 channels is measured by Fluorescence Resonance Energy Transfer (FRET) assay and electrophysiology assay described below.
This screen is used to determine the effects of compounds on human Nav1.3, human Nav1.7, and human Nav1.5 channels, utilising electrical field stimulation (EFS) system in 96-well plate format on FDSS (Hamamatsu Photonics) platform. The change of membrane potential is monitored with FRET dye pair, oxonol (DiSBAC2(3)) and coumarin (CC2-DMPE).
CHO cells expressing human Nav1.7 channels are grown in T225 flasks, in a 5% CO2 humidified incubator to about 80% confluence. Media composition consists of HAM/F12 with Glutamax 1.10% FCS, 100 units/mL Penicillin and 100 microgram/mL Hygromycin.
Protocol: • Seed each cell lines (1×10^5 cells/well) into poly-D-lysine coated 96-well plates prior to experimentation. • Incubate at 37° C. in 5% CO2 for 24 hours. • Wash each well with assay buffer (140 mM NaCl, 4.5 mM KCl, 10 mM D-Glucose, 2 mM CaCl2, 1 mM MgCl2, 10 mM HEPES, pH 7.4 adjusted with NaOH) twice. • Add 1st loading solution containing 10 microM CC2-DMPE and 0.06% Pluronic F-127 in assay buffer. • Incubate the plate at room temperature in dark for 1 hour. • Remove 1st loading solution and added 2nd loading solution containing 15 microM DiSBAC2(3), 0.555 mM VABSC-1 and 0.004% Pluronic F-127 in assay buffer. • Place the plate under the dark at room temperature for 25 minutes. • Add compound solutions into the assay plate. • Set the assay plate in FDSS and placed an EFS device on the plate. • Measure EFS-induced fluorescent response by FDSS.
The data are analyzed and reported as normalized ratios of intensities measured at […]. The process of calculating these ratios is performed as follows:
This analysis is performed using a computerized specific program designed for FDSS generated data. Fluorescence ratio values are plotted using XLfit to determine an IC50 value for each compound.

T1 sequence (Q15858 whole entry): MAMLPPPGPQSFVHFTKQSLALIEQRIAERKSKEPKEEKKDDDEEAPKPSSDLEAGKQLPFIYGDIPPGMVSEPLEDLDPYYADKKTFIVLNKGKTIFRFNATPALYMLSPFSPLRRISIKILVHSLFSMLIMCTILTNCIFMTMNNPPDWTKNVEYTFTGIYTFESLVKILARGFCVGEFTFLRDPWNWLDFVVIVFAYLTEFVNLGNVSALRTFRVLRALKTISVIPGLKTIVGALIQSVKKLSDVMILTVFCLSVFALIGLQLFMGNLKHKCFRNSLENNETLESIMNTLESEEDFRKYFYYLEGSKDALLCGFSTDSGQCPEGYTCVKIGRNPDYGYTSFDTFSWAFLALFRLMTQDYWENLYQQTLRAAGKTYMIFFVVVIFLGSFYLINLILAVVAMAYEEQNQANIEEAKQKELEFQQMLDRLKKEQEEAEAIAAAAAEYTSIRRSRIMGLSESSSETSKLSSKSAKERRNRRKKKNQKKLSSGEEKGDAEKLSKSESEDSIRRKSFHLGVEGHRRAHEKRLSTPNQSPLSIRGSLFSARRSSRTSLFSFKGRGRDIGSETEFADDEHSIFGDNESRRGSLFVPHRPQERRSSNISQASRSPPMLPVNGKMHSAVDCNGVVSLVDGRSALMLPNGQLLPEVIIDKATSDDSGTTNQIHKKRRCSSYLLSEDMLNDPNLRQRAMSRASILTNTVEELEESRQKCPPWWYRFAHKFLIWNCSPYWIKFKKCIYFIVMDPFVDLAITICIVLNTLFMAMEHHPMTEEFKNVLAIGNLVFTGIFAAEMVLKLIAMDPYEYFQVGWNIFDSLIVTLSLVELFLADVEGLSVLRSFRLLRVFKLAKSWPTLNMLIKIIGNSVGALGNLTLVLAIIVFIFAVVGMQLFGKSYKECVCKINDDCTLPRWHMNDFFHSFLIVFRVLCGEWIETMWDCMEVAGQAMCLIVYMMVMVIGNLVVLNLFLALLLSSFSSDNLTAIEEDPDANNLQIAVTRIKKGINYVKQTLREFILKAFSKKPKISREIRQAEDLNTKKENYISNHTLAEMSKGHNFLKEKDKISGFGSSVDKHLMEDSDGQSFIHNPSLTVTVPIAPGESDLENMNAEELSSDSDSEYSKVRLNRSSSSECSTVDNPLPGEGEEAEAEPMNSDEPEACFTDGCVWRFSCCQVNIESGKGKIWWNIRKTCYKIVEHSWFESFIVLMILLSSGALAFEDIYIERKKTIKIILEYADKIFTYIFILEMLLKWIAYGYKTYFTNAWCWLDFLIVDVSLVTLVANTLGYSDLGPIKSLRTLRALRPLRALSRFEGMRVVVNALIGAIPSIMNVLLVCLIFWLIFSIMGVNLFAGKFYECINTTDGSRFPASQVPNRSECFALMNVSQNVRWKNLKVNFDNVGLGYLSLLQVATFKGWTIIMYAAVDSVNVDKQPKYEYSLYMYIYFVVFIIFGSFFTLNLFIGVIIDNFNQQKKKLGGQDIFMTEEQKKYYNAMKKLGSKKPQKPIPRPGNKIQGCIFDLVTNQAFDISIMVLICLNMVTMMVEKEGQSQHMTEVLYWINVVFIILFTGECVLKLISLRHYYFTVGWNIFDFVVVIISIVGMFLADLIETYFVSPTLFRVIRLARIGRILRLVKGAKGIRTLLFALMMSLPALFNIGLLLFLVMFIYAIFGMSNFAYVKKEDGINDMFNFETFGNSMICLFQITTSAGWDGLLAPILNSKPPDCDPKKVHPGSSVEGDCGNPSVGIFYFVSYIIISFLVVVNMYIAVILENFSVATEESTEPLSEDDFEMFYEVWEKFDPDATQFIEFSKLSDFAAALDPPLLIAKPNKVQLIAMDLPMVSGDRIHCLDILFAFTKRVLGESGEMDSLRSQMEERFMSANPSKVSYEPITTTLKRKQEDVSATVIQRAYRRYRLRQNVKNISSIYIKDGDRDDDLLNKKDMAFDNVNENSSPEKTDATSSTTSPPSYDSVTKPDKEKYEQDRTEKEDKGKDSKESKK

| IC50 [nM] | SMILES |
| --- | --- |
| < 1000 | CCC(=O)Nc1cc(C(=O)NCc2ccc(OCC(F)(F)F)c(OC)c2)ccn1 [Example 882, N-(3-methoxy-4-(2,2,2-trifluoroethoxy)benzyl)-2-propionamidoisonicotinamide] |
| < 1000 | CC(C)C(=O)Nc1nccc(C(=O)NCc2cnc(OCC(F)(F)F)c(Cl)c2)n1 [Example 412, N-((5-chloro-6-(2,2,2-trifluoroethoxy)pyridin-3-yl)methyl)-2-isobutyramidopyrimidine-4-carboxamide] |
| < 1000 | CC(C)C(=O)Nc1cc(C(=O)NC(C)c2cccc(OC(F)(F)F)c2)ccn1 (single isomer, unassigned) [Example 418, 2-isobutyramido-N-(1-(3-(trifluoromethoxy)phenyl)ethyl)isonicotinamide] |
| < 1000 | CCC(=O)Nc1cc(C(=O)NC(C)c2cnc(OCC(F)(F)F)c(F)c2)cc(C)n1 (single isomer, unassigned) [Example 131, N-(1-(5-fluoro-6-(2,2,2-trifluoroethoxy)pyridin-3-yl)ethyl)-2-methyl-6-propionamidoisonicotinamide] |
| < 1000 | CC(NC(=O)c1ccnc(NC(=O)C2CC2)c1)c1ccc(OCCC(F)(F)F)nc1 (single isomer, unassigned) [Example 116, 2-(cyclopropanecarboxamido)-N-(1-(6-(3,3,3-trifluoropropoxy)pyridin-3-yl)ethyl)isonicotinamide] |
| < 1000 | CCC(=O)Nc1cc(C(=O)NCc2cccc(C(F)(F)F)c2OC)ccn1 [Example 1017, N-(2-methoxy-3-(trifluoromethyl)benzyl)-2-propionamidoisonicotinamide] |
| < 1000 | Cc1cc(CNC(=O)c2ccnc(NC(=O)C(C)C)c2)cnc1OCC(F)(F)F [Example 370, 2-isobutyramido-N-((5-methyl-6-(2,2,2-trifluoroethoxy)pyridin-3-yl)methyl)isonicotinamide] |
| < 1000 | CCC(=O)Nc1cc(C(=O)NCc2ccc(O[C@H](C)C(F)(F)F)nc2)cc(C)n1 (single isomer, unassigned) [Example 318] |
| < 1000 | CC(=O)Nc1cc(C(=O)N(C)C(C)c2cnc(OCC(F)(F)F)c(C)c2)cc(C)n1 (single isomer, unassigned) [Example 391, 2-acetamido-N,6-dimethyl-N-(1-(5-methyl-6-(2,2,2-trifluoroethoxy)pyridin-3-yl)ethyl)isonicotinamide] |
| < 1000 | Cc1cc(C(=O)NCc2cccc(C(F)(F)F)c2F)cc(NC(=O)C(C)C)n1 [Example 876, N-(2-fluoro-3-(trifluoromethyl)benzyl)-2-isobutyramido-6-methylisonicotinamide] |
| < 1000 | CCOc1nc(OCC(F)(F)F)ccc1CNC(=O)c1cc(C)nc(NC(=O)CC)c1 [Example 334, N-((2-ethoxy-6-(2,2,2-trifluoroethoxy)pyridin-3-yl)methyl)-2-methyl-6-propionamidoisonicotinamide] |
| < 1000 | Cc1cc(C(=O)NCc2cnc(OCC(F)(F)F)cc2C)nc(NC(=O)C(C)C)n1 [Example 353, 2-isobutyramido-6-methyl-N-((4-methyl-6-(2,2,2-trifluoroethoxy)pyridin-3-yl)methyl)pyrimidine-4-carboxamide] |
| < 1000 | CCOc1nc(OCC(F)(F)F)ccc1CNC(=O)c1ccnc(NC(=O)C(C)C)c1 [Example 335, N-((2-ethoxy-6-(2,2,2-trifluoroethoxy)pyridin-3-yl)methyl)-2-isobutyramidoisonicotinamide] |
| < 1000 | CCC(=O)Nc1cc(C(=O)NC(C)c2ccc(OCC(F)(F)F)cc2Cl)ccn1 (single isomer, unassigned) [Example 797, N-(1-(2-chloro-4-(2,2,2-trifluoroethoxy)phenyl)ethyl)-2-propionamidoisonicotinamide] |
| < 1000 | CC(=O)Nc1cc(C(=O)NCc2ccc(OCC(F)(F)F)nc2N2CCOCC2)cc(C)n1 [Example 283, 2-acetamido-6-methyl-N-((2-morpholino-6-(2,2,2-trifluoroethoxy)pyridin-3-yl)methyl)isonicotinamide] |
| < 1000 | CCC(=O)Nc1cc(C(=O)NCc2ccc(OCC(F)F)nc2OC)ccn1 [Example 1152, N-((6-(2,2-difluoroethoxy)-2-methoxypyridin-3-yl)methyl)-2-propionamidoisonicotinamide] |
| < 1000 | CC(C)C(=O)Nc1cc(C(=O)NCc2ccc(OCC(F)(F)F)nc2N2CCOCC2)ccn1 [Example 282, 2-isobutyramido-N-((2-morpholino-6-(2,2,2-trifluoroethoxy)pyridin-3-yl)methyl)isonicotinamide] |
| < 1000 | CC(NC(=O)c1ccnc(NC(=O)C2CC2)c1)c1ccc(OCC(F)(F)C(F)(F)F)nc1 (single isomer, unassigned) [Example 689, 2-(cyclopropanecarboxamido)-N-(1-(6-(2,2,3,3,3-pentafluoropropoxy)pyridin-3-yl)ethyl)isonicotinamide] |
| < 1000 | COc1cc(OC(F)(F)F)ccc1CNC(=O)c1cc(C)nc(NC(=O)C(C)C)c1 [Example 871, 2-isobutyramido-N-(2-methoxy-4-(trifluoromethoxy)benzyl)-6-methylisonicotinamide] |
| < 1000 | COc1nc(OCC(F)F)ccc1C(C)NC(=O)c1ccnc(NC(C)=O)c1 (single isomer, unassigned) [Example 1160, 2-acetamido-N-(1-(6-(2,2-difluoroethoxy)-2-methoxypyridin-3-yl)ethyl)isonicotinamide] |
| < 1000 | CC(=O)Nc1cc(C(=O)N(C)C(C)c2cnc(OCC(F)(F)F)c(C)c2)ccn1 (single isomer, unassigned) [Example 392, 2-acetamido-N-methyl-N-(1-(5-methyl-6-(2,2,2-trifluoroethoxy)pyridin-3-yl)ethyl)isonicotinamide] |
| < 1000 | COc1nc(OCC(F)(F)F)ccc1CNC(=O)c1cc(C)nc(NC(=O)C2CC2)n1 [Example 181, 2-(cyclopropanecarboxamido)-N-((2-methoxy-6-(2,2,2-trifluoroethoxy)pyridin-3-yl)methyl)-6-methylpyrimidine-4-carboxamide] |
| < 1000 | Cc1cc(C(=O)NC(C)c2ccc(OCC(F)(F)F)c(Cl)c2)cc(NC(=O)C(C)C)n1 (single isomer, unassigned) [Example 678, N-(1-(3-chloro-4-(2,2,2-trifluoroethoxy)phenyl)ethyl)-2-isobutyramido-6-methylisonicotinamide] |
| < 1000 | CCCC(=O)Nc1cc(C(=O)NC(C)c2ccc(OCC(C)(F)F)nc2)ccn1 (single isomer, unassigned) [Example 787, 2-butyramido-N-(1-(6-(2,2-difluoropropoxy)pyridin-3-yl)ethyl)isonicotinamide] |
| < 1000 | Cc1cc(C(=O)NC(C)c2ccc(OCC(F)F)c(C)c2)nc(NC(=O)C2CC2)n1 (single isomer, unassigned) [Example 1075, 2-(cyclopropanecarboxamido)-N-(1-(4-(2,2-difluoroethoxy)-3-methylphenyl)ethyl)-6-methylpyrimidine-4-carboxamide] |
| < 1000 | Cc1cc(C(=O)NCc2ccc(OCC(F)(F)F)nc2)cc(NC(=O)C2CC2)n1 [Example 822, 2-(cyclopropanecarboxamido)-6-methyl-N-((6-(2,2,2-trifluoroethoxy)pyridin-3-yl)methyl)isonicotinamide] |
| < 1000 | Cc1cc(C(=O)N[C@H](C)c2cccc(C(F)(F)F)c2)cc(NC(=O)C(C)C)n1 (single isomer, unassigned) [Example 531] |
